US10660909B2, “Method for treating cancer using chemokine antagonists” (Syntrix Biosystems Inc., priority 2016, dated 2020)

Experiments:
[1] = system: T11 mouse model of breast cancer; experiment: T11 mouse model of breast cancer; type: in vivo; conditions: T11 mice; SX-682 oral via medicated feed ~10 mg/day/mouse; CP 50 mg/kg ip once weekly; 1-2 weeks; N=7; P<0.0001; FIG. 4
From the text: The T11 model is a validated mouse model of breast cancer, which derives from the serial orthotopic transplantation of a murine breast tumor derived from a p53-null mouse into a syngeneic p53 competent recipient, and features sporadic, somatic K-Ras mutation (Herschkowitz, 2012, Proc Natl Acad Sci, 109:2778-83, herein incorporated by reference). Tumors from the T11 model display an RNA expression pattern characteristic of the human claudin-low disease, and are extremely aggressive, with the majority of untreated animals surviving less than 21 days from the time of enrollment in the therapy studies. Treatment regimens were started following tumor manifestation. SX-682 was given orally via medicated feed, at an approximate dose of 10 mg/day/mouse. In brief, the medicated feed was prepared by Research Diets (New Brunswick, N.J.) by incorporating 15.2 grams of SX-682 spray dried dispersion (as prepared in Formulation Example 1) into 1042 grams of standard rodent diet with 10% kcals from fat. The medicated feed was formed into pellets. Carboplatin (CP) was administered once weekly via intraperitoneal injection at a dose of 50 mg/kg. […] Mean±SE. *** P<0.0001 (linear regression).

[2] = system: Lewis lung carcinoma (LLC); experiment: LLC syngeneic mouse model of lung cancer; type: in vivo; conditions: LLC mice; SX-682 50 mg/kg twice daily oral; anti-PD-1 100 μg twice weekly ip; treatment from day 18; N=5; FIG. 10
Protocol: The Lewis lung carcinoma (LLC) mouse model (Kellar, 2015, Biomed Res Int, 2015:621324, herein incorporated by reference) was used to evaluate the effect of SX-682 alone and in combination with anti-PD-1 antibody. LLC mouse […] cells were cultured, then mice were injected with 0.5×10^6 LLC cells on day 0, and on day 18 treatment was initiated. Mice were treated with vehicle (control), SX-682 alone (50 mg/kg twice daily, oral), anti-PD-1 alone (100 μg twice weekly, ip), or SX-682 in combination with anti-PD-1 (N=5 per cohort). SX-682 was used as a spray dried dispersion (Formulation Example 1), and was administered to mice via oral gavage as a suspension in 0.5% aq. methylcellulose. The results of this experiment can be seen in FIG. 10 and FIG. 11.

[3] = system: Pten^pc−/−p53^pc−/−Smad4^pc−/− mouse prostate tumors; experiment: Pten/p53/Smad4 triple knockout mouse model of castration resistant prostate cancer; type: in vivo; conditions: SX-682 50 mg/kg b.i.d. oral gavage; ICB 200 μg each anti-PD1 and anti-CTLA4 3×/week; 4-6 weeks; FIG. 12
Protocol: The genetically engineered Pten^pc−/−p53^pc−/−Smad4^pc−/− mouse is a prostate-specific PB promoter-driven (PB-Cre4) conditional triple knockout model (i.e., prostate-specific deletion of all three tumor suppressors, Pten, p53 and Smad4 occurs in the ‘prostate cancer’ or ‘pc’). […] SX-682 was used as a spray dried dispersion (Formulation Example 1), and was administered to mice via oral gavage as a suspension in 0.5% aq. methylcellulose. Treatment was continued for 4-6 weeks and prostate weights measured to determine tumor burden. […] Mean±SE.

[4] = system: C3Tag mouse model of breast cancer; experiment: C3Tag mouse model of breast cancer; type: in vivo; conditions: C3Tag mice; for median survival: SX-682 ~10 mg/day/mouse oral, CP 50 mg/kg ip weekly, up to 60 days, vehicle 18 days, FIG. 6
From the text: The C31-T-antigen (C3Tag) mouse model is a validated model of human triple-negative basal cell breast cancer as shown by gene expression analysis (Maroulakou, 1994, Proc Natl Acad Sci, 91:11236-40, herein incorporated by reference). The expressed large T-antigen binds and inactivates the RB and p53 tumor suppressor genes, explaining why this model faithfully recapitulates human basal breast cancer, which also harbors RB and p53 inactivation. This model also has frequent K-Ras amplification and infrequent Ras mutations. Treatment regimens were started following tumor manifestation. SX-682 was given orally via medicated feed, at an approximate dose of 10 mg/day/mouse. Carboplatin (CP) was administered once weekly via intraperitoneal injection at a dose of 50 mg/kg.

[5] = system: TRIA mouse model of melanoma; experiment: TRIA mouse model of melanoma; type: in vivo; conditions: TRIA mice; SX-682 oral via medicated feed ~10 mg/day/mouse; CP 50 mg/kg ip once weekly; FIG. 7 and 8
Protocol: The Tyrosine-Hras/Ink/Arf null (TRIA) is a validated mouse model of melanoma features an immuno-competent autochthonous tumor; Ras events are in >70% of all melanomas, and ˜50% lose the INK4a/ARF locus which, with B-RAF mutations, is the most common lesion of this cancer (Sharpless, 2016, Cancer Cell 29:832-45). Treatment regimens were started following tumor manifestation. SX-682 was given orally via medicated feed, at an approximate dose of 10 mg/day/mouse. Carboplatin (CP) was administered once weekly via intraperitoneal injection at a dose of 50 mg/kg.

[6] = system: MDSCs isolated from blood of AOM/DSS-treated BALBc mice; experiment: GROα-mediated MDSC migration (transwell, flow cytometry count); type: cell-based, mouse; conditions: SX-682 0.1, 1 and 10 μM; GROα (CXCL1) 100 ng/ml; 12 hours; FIG. 2
Protocol: Using the of method of Katoh, 2013, Cancer Cell, 24:631-44 (herein incorporated by reference), to induce and isolate MDSCs, male BALBc mice were given a single intraperitoneal injection of azoxymethane (AOM, 10 mg/kg). Seven days later, these mice were given 4 cycles of water and water containing 1.25% dextran sulfate sodium (DSS). One cycle consisted of providing mice with regular drinking water for 7 days, followed by 1.25% aqueous DSS for 7 days, followed by regular drinking water for 7 days. MDSCs were isolated from femurs and blood of AOM/DSS-treated BALBc mice using the Myeloid-Derived Suppressor Cell Isolation Kit (Miltenyi Biotec) after lysis of red blood cells (RBC) according to the manufacturer's instructions. GROα (CXCL1) was placed in the bottom chamber of a 24-well plate at a concentration of 100 ng/ml. MDSCs isolated from blood of AOM/DSS-treated BALBc mice were seeded at a density of 1×10^6/well in the upper chamber (3 m, BD Falcon). After incubation for 12 hours, migrated cells were quantified by flow cytometry using CountBright Absolute Counting Beads (Molecular Probes). […] The test concentrations of SX-682 were 0.1, 1 and 10 μM, and the DMSO concentration was ≤1%.

[7] = system: B16-F10 mouse melanoma cells; experiment: B16-F10 syngeneic mouse model of melanoma; type: in vivo; conditions: B16-F10 mice; SX-682 50 mg/kg twice daily oral; anti-PD-1 100 μg twice weekly ip; treatment from day 18; N=4-5; FIG. 9
Protocol: The B16-F10 mouse model is a validated model of melanoma, Overwijk, 2001, Curr Protoc Immunol, Chapter 20: Units 20-21 (herein incorporated by reference). It was used to evaluate the effect of SX-682 alone and in combination with anti-PD1 antibody. B16-F10 mouse melanoma cells were cultured, then mice were injected with 0.5×10^6 B16-F10 cells on day 0, and treatment was initiated on day 18. Mice were treated with vehicle (control), SX-682 alone (50 mg/kg twice daily, oral), anti-PD-1 alone (100 μg twice weekly, ip), or SX-682 in combination with anti-PD-1 (N=4-5 per cohort). SX-682 was used as a spray dried dispersion (Formulation Example 1), and was administered to mice via oral gavage as a suspension in 0.5% aq methylcellulose. […] Data and error bars are the mean±SE.

[8] = system: 60 human tumor cell line panel; experiment: NCI 60 human tumor cell line panel, SRB growth inhibition; type: cell-based
Protocol: The chemokine CXCL8 and its receptors CXCR1 and CXCR2 have been identified as important mediators of cellular proliferation for a number of tumor cell types. To validate the relationship between CXCR1 and CXCR2 receptor antagonism and inhibition of tumor cell proliferation, SX-682 was evaluated against the 60 human tumor cell line panel at five concentration levels (0.01, 0.1, 1, 10, 100 μM) as performed by the Developmental Therapeutics Program at the National Cancer Institute (Shoemaker, 2006, Nat Rev Cancer, 6:813-23).
The human tumor cell lines of the cancer screening panel were grown in RPMI 1640 medium containing 5% fetal bovine serum and 2 mM L-glutamine. Cells were inoculated into 96 well microtiter plates in 100 μL at plating densities ranging from 5,000 to 40,000 cells/well depending on the doubling time of individual cell lines. After cell inoculation, the microtiter plates were incubated at 37° C., 5% CO2, 95% air and 100% relative humidity for 24 h prior to addition of SX-682.
After 24 h, two plates of each cell line are fixed in situ with TCA, to represent a measurement of the cell population for each cell line at the time of drug addition (Tz). SX-682 was solubilized in dimethyl sulfoxide at 400-fold the desired final maximum test concentration and stored frozen prior to use. At the time of SX-682 addition, an aliquot of frozen concentrate was thawed and diluted to twice the desired final maximum test concentration with complete medium containing 50 μg/ml gentamicin. Additional four, 10-fold or ½ log serial dilutions are made to provide a total of five drug concentrations plus control. Aliquots of 100 μl of these different drug dilutions were added to the appropriate microtiter wells already containing 100 μl of medium, resulting in the required final drug concentrations.
Following drug addition, the plates were incubated for an additional 48 h at 37° C., 5% CO2, 95% air, and 100% relative humidity. For adherent cells, the assay was terminated by the addition of cold TCA. Cells were fixed in situ by the gentle addition of 50 μl of cold 50% (w/v) TCA (final concentration, 10% TCA) and incubated for 60 minutes at 4° C. The supernatant was discarded, and the plates were washed five times with tap water and air dried. Sulforhodamine B (SRB) solution (100 μl) at 0.4% (w/v) in 1% acetic acid was added to each well, and plates were incubated for 10 minutes at room temperature. After staining, unbound dye was removed by washing five times with 1% acetic acid and the plates were air dried. Bound stain was subsequently solubilized with 10 mM TRIS, and the absorbance was read on an automated plate reader at a wavelength of 515 nm. For suspension cells, the methodology is the same except that the assay was terminated by fixing settled cells at the bottom of the wells by gently adding 50 μl of 80% TCA (final concentration, […]). Using the seven absorbance measurements (time zero, (Tz), control growth, (C), and test growth in the presence of drug at the five concentration levels (Ti)), the percentage growth was calculated at each of the drug concentrations levels. Percentage growth inhibition was calculated as: (Ti−Tz)/(C−Tz)×100 for concentrations for which Ti>/=Tz (Ti−Tz)/Tz×100 for concentrations for which Ti<Tz.
Three dose response parameters were calculated for each experimental agent. […] The drug concentration resulting in total growth inhibition (TGI) is calculated from Ti=Tz. The LC50 (concentration of drug resulting in a 50% reduction in the measured protein at the end of the drug treatment as compared to that at the beginning) indicating a net loss of cells following treatment is calculated from (Ti−Tz)/Tz×100=−50. Values are calculated for each of these three parameters if the level of activity is reached; however, if the effect is not reached or is exceeded, the value for that parameter is expressed as greater or less than the maximum or minimum concentration tested.

| Structure (SMILES) | tumor growth (tumor volume) [1] | tumor growth (tumor area) [2] | tumor burden (prostate weight) [3] | tumor growth (tumor volume) ([4]; SX-682 oral via medicated feed ~10 mg/day/mouse, CP 50 mg/kg ip once weekly, 4-6 weeks, N=10-12, FIG. 5) | median survival [4] | tumor growth (tumor volume) [5] | inhibition of GROα-mediated MDSC migration [6] | tumor growth (tumor area) [7] | proliferation of human tumor cells ([8]; 60 cell lines, 0.01, 0.1, 1, 10, 100 μM, 48 h, FIG. 3A-3I) | inhibition of tumor cell proliferation, renal cancer cell lines ([8]; 786-0, CAK-1, TK-10, RXF 393, UO-31, ACHN, SN12C, FIG. 3G) | inhibition of tumor cell proliferation, non-small cell lung cancer cell lines ([8]; A549, H226, H460, H23, H522, H322M, HOP-62, HOP-92, FIG. 3B) | inhibition of tumor cell proliferation, leukemia cell lines ([8]; CCRF-CEM, MOLT-4, HL-60, RPMI-8226, K-562, SR, 10^−8 to 10^−4 M, FIG. 3A) | inhibition of tumor cell proliferation, colon cancer cell lines ([8]; COLO 205, HCT-15, HCC-2998, KM12, HCT-116, SW-620, FIG. 3C) | inhibition of tumor cell proliferation, ovarian cancer cell lines ([8]; IBROV1, OVCAR-8, OVCAR-3, NCI/ADR-RES, OVCAR-5, SK-OV-3, FIG. 3F) | inhibition of tumor cell proliferation, melanoma cell lines ([8]; LOX IMVI, MDA-MB-435, SK-MEL-5, MALME-3M, SK-MEL-2, UACC-257, M14, SK-MEL-28, UACC-62, FIG. 3E) | inhibition of tumor cell proliferation, breast cancer cell lines ([8]; MCF7, BT-549, MDA-MB-231, T-47D, HS 578T, MDA-MB-468, FIG. 3I) | inhibition of tumor cell proliferation, prostate cancer cell lines ([8]; PC-3, DU-145, FIG. 3H) | inhibition of tumor cell proliferation, CNS cancer cell lines ([8]; SF-268, SNB-19, SF-295, SNB-75, SF-539, FIG. 3D) |
| --- | --- | --- | --- | --- | --- | --- | --- | --- | --- | --- | --- | --- | --- | --- | --- | --- | --- | --- |
| O=C(Nc1ccc(F)cc1)c1cnc(SCc2cc(OC(F)(F)F)ccc2B(O)O)nc1 [SX-682] | effective therapy for breast cancer | significantly slowed tumor growth | inhibited prostate cancer | significantly reduced tumor growth as compared to untreated controls | 28 days | significantly slowed tumor growth comparable to CP alone | effectively inhibit GROα-mediated MDSC migration in a dose-dependent manner | significantly slowed tumor growth | directly affect the proliferation of human tumor cells | direct inhibition of tumor cell proliferation | direct inhibition of tumor cell proliferation | direct inhibition of tumor cell proliferation | direct inhibition of tumor cell proliferation | direct inhibition of tumor cell proliferation | direct inhibition of tumor cell proliferation | direct inhibition of tumor cell proliferation | direct inhibition of tumor cell proliferation | direct inhibition of tumor cell proliferation |
| N.N.O=C([O-])C1(C(=O)[O-])CCC1.[Pt+2] [carboplatin, reference compound] | – | – | – | – | 28 days | – | – | – | – | – | – | – | – | – | – | – | – | – |
